Data as given in PubChem BioAssay (NCI).
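Dose response: 5 concentrations. Exposure: 48 h. Format: 96-well plates. Endpoint: linear interpolation; highest concentration if not reached. GI50 = concentration required for 50% inhibition of growth. TGI: concentration producing complete growth inhibition.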

Legend:
MCF7 breast = experiment: NCI anticancer screen, dose series, 48 h
BT-549 breast = experiment: NCI anticancer screen, dose series, 48 h

Row | SMILES | GI50 (MCF7 breast) [µM] | TGI (MCF7 breast) [µM] | GI50 (BT-549 breast) [µM] | TGI (BT-549 breast) [µM]
1 | O=C(Oc1ccc(Cl)cc1Cl)c1ccccc1Nc1ccnc(C(F)(F)F)c1 | 3.61 | 17.2 | 6.7 | 25.4
2 | COc1cc(C2CC(c3ccc(C)cc3)=NN2C=O)ccc1Oc1ccnc2cc(Cl)ccc12 (configuration not stated) | > 50 | > 50 | 3.96 | > 50
3 | O=C(CN1CCN(c2ncccn2)CC1)Nc1ccc(Cl)cc1C(=O)c1ccccc1Cl | 83.3 | > 100 | > 100 | > 100
4 | COc1ccc2nc(N/N=C(\C)c3ccccn3)cc(C)c2c1 | 0.288 | 1.07 | 0.168 | 1.96
5 | O=C1NCc2ccc3c(-c4cccc(Cl)c4)c[nH]c3c21 | 0.177 | > 50 | 0.245 | > 45.7
6 | COc1ccc(-c2nn3ncccc3c2-c2ccnc(Nc3ccc(Cl)c(C(F)(F)F)c3)n2)cc1 | 6.53 | > 25 | 10.2 | > 25
7 | COc1ccc(-c2nc3sc(C)cn3c2/C=C/C(=O)c2cc(OC)c(OC)c(OC)c2)cc1 | 3.13 | > 100 | 4.13 | > 100
8 | CNC(=O)c1cc(OC2CCC(NC(=O)Nc3ccc(Cl)c(C(F)(F)F)c3)CC2)ccn1 (configuration not stated) | 3.48 | 18.1 | 7.8 | 23.6
9 | Cc1ccc(-[n+]2c3cc(N)c(C)cc3nc3cc(C)c(Nc4ccccc4)cc32)cc1 |  |  | 0.128 | 0.717
10 | CCN(CC)CCOc1nc2ccc(OC)cc2c2c1-c1ccc(OC)cc1C2=O | 0.367 | 1.53 | 5.94 | 18
11 | CS(=O)(=O)CCNCc1nc(-c2ccc3ncnc(Nc4ccc(F)c(Cl)c4)c3c2)cs1 | > 23.3 | > 25 | > 25 | > 25
12 | C=C1C(=O)O[C@H]2[C@H]1CC/C(COC(=O)c1cc3cc(F)ccc3[nH]1)=C\CC[C@@]1(C)O[C@@H]21 | 1.02 | 3.75 |  | 
13 | COc1ccc2c(c1)[nH]c(=O)c1c3cc(C)c(C)cc3cn21 | 0.0927 | 1.16 | 0.024 | 0.366
14 | COc1ccc2c(c1)/C(=C\c1c(C)nc3sc(C)cn13)C(=O)N2C | 3.29 | 35.4 | 6.01 | 49.7
15 | C=C1C(=O)O[C@H]2[C@H]1CC/C(Cn1cc(CNC(=O)Cc3cn(C(=O)c4ccc(Cl)cc4)c4ccc(OC)cc34)nn1)=C\CC[C@@]1(C)O[C@@H]21 |  |  | 1.61 | 3.41
16 | Cc1ccc(CNc2c3ccccc3nc3ccccc23)cc1 | 1.99 | 5.03 | 2.43 | 6.34
17 | COc1cc2c3c(n(C)c(=O)c2cc1OC)-c1cc2c(cc1/C3=C\CCCCCN)OCO2 |  |  | 6.05 | 21.3
18 | O=C(CCCCCCSc1nc(-c2ccccc2)cc(-c2ccc(Cl)cc2)n1)NO | 1.95 | 13.3 | 3.67 | 17.5
19 | CCC[CH2][Sn-]([CH2]CCC)([CH2]CCC)[O]c1cc(Cl)c(Cl)cc1Cl | 0.237 | 0.887 |  | 
20 | O=C(Nc1ccc(N2CCNCC2)cc1)c1[nH]ncc1Nc1ncnc2sc3c(c12)CCC3 | 0.166 | 1.3 | 1.13 | 2.4
21 | COc1nc(N(C)O)nc(N(C)O)n1 | 2.07 | > 100 | 3.16 | > 100
22 | COc1ccc2cc(C(=O)/C=C/c3cc(OC)c(OC)c(OC)c3)ccc2c1 |  |  | 5.7 | 19.5
23 | COc1cc(/C(C#N)=C/c2ccc3c(c2OC)OCO3)cc2c1OCO2 | 0.0482 | > 100 | 0.669 | 29.3
24 | CN(C)c1cccc2c(S(=O)(=O)N[C@H]3CC[C@H]4[C@@H]5CCc6cc(O)ccc6[C@H]5CC[C@]34C)cccc12 | 2.59 | > 100 | 2.55 | 6.5
25 | COc1ccc(Cl)cc1Nc1nc(C(F)(F)F)ccc1C(=O)N/N=C/c1c(Cl)cccc1Cl |  |  | 1.2 | 6.84
26 | CC(=O)Nc1ccc2c(c1)c(C1=C(c3cn(C)c4ccccc34)C(=O)NC1=O)cn2C | 0.852 | > 15.7 | 1.55 | 14.8
27 | O=[N+]([O-])C1C(c2ccccc2)C12c1ccccc1-c1ccccc12 (configuration not stated) | 0.351 | 30.8 | 0.543 | 7.32
28 | Cc1c2c(nn1-c1ccc(S(=O)(=O)NC(=S)Nc3ccccc3)cc1)-c1ccccc1CC2 | 11.5 | 34.3 | > 50 | > 50
29 | Cc1cc(-c2ncc(CC(=O)Nc3ccc(-c4cnccn4)cn3)cc2C)ccn1 | 19.1 | > 100 |  | 
30 | CCOc1cc2ncc(C#N)c(Nc3ccc(OCc4cccc(F)c4)c(Cl)c3)c2cc1NC(=O)CC1CCSS1 (configuration not stated) |  |  | 1.87 | > 25
